This passage reports IC50 results from patent US20090311217A1, “3-SUBSTITUTED-1H-INDOLE COMPOUNDS, THEIR USE AS MTOR KINASE AND PI3 KINASE INHIBITORS, AND THEIR SYNTHESES” (priority 2008, published 2009).

Common to all, as to type: biochemical
In one assay the target is PI3K-alpha (Homo sapiens, UniProt P42336). In words: PI3K-alpha fluorescence polarization assay. The conditions noted are these: read-out: PI3Kα Avg. IC50.
In the next assay the target is T1, human TOR (Homo sapiens, UniProt P42345).
T1 construct: FLAG
In words: mTOR enzyme assay (DELFIA, His6-S6K substrate). Particulars: read-out: mTOR Kinase Avg. IC50.

The next assay addresses PI3K-gamma (Homo sapiens, UniProt P48736). In words: PI3K-gamma fluorescence polarization assay. The method in brief: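 Inhibition is derived from a polarization signal: after a 1 h, 25° C kinase step (25 μM ATP, 2.5 μM diC8-PIP2, pH 7), EDTA stops the reaction and the GRP1 PH domain/TMR-IP4 pair reports lipid product.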

Where two headings read alike, the source gives them in different places.

Chain of PI3K-alpha (P42336 whole entry, species assumed): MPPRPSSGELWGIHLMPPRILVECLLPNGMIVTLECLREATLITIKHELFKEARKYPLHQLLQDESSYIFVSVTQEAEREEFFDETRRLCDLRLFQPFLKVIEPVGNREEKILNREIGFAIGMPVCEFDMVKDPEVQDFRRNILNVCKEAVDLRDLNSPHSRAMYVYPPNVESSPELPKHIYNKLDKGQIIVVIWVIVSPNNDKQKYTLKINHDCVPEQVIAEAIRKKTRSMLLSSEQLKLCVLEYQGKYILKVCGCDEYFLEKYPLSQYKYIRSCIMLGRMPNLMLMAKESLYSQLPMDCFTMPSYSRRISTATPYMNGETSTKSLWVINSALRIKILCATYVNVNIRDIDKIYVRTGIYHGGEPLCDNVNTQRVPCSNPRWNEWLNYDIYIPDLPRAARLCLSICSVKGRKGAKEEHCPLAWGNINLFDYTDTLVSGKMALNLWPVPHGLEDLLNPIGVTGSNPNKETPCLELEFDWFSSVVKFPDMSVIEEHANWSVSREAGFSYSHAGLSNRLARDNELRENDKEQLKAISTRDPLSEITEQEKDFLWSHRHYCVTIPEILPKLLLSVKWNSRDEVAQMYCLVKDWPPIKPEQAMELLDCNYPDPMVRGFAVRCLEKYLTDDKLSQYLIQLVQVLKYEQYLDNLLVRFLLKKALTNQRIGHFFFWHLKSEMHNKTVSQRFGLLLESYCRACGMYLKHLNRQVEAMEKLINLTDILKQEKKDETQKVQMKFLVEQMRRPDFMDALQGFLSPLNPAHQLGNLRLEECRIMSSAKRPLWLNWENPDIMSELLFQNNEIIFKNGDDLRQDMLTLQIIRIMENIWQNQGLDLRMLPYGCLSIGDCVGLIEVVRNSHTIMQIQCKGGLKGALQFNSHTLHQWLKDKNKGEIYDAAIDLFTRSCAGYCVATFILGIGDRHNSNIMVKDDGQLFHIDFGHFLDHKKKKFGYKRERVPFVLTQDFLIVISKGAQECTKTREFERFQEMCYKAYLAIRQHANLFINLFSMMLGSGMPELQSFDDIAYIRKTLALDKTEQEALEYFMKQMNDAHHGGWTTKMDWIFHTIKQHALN
Chain of PI3K-alpha (P27986 whole entry partner, species assumed): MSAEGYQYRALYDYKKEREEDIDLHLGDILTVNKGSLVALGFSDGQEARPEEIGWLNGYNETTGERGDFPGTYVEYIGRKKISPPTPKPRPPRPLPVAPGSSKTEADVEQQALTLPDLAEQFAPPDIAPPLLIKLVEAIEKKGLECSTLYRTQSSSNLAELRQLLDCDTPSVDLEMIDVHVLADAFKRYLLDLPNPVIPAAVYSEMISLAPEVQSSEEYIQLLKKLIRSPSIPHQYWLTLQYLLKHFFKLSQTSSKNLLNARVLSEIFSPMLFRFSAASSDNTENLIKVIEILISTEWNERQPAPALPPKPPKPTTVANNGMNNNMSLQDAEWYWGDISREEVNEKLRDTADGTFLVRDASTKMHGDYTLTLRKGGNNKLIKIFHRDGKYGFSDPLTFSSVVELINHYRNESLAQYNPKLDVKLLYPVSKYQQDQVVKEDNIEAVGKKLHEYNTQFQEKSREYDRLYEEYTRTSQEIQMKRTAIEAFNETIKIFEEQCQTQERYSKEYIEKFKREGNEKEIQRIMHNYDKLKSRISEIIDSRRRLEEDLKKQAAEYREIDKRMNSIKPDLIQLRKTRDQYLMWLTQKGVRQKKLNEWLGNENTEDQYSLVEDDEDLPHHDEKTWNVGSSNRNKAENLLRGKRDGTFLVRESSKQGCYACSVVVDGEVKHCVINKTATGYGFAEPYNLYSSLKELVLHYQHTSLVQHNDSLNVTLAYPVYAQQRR
Chain of PI3K-gamma (P48736 whole entry, species assumed, the tested form may be a part): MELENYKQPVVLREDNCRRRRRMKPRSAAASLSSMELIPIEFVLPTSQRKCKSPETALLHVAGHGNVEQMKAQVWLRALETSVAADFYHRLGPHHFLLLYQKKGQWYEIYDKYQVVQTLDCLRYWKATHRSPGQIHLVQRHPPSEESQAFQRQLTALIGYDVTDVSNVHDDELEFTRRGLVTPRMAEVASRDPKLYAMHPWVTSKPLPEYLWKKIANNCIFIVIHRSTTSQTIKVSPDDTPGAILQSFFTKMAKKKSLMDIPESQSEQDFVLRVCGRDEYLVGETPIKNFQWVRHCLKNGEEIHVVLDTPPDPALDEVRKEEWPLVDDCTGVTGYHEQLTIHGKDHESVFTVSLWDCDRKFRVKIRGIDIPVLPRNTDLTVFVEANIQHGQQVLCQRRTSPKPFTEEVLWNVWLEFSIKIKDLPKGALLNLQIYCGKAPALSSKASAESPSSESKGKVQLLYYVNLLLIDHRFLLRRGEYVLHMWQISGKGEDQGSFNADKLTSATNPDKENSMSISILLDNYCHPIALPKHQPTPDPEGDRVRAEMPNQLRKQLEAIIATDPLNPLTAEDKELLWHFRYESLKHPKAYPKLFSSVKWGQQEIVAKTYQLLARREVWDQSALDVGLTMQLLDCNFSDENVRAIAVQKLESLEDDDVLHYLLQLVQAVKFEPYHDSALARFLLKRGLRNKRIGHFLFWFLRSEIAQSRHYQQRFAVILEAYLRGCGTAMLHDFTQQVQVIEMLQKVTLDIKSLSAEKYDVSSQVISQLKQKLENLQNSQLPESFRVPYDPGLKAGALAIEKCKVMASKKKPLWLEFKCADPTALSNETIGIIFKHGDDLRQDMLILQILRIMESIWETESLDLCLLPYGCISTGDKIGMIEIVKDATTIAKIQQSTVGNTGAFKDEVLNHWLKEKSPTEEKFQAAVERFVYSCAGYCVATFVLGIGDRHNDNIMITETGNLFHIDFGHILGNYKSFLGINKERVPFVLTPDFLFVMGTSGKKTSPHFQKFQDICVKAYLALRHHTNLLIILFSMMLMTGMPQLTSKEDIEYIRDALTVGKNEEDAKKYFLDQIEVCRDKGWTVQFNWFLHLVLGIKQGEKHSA

Turning to `COc1ccc2c(c1)c(/C=C1\Oc3cc(O)cc(O)c3C1=O)c(C1CC1)n2CCN1CCC(O)CC1` [Example 315, (2Z)-2-({2-Cyclopropyl-1-[2-(4-hydroxypiperidin-1-yl)ethyl]-5-methoxy-1H-indol-3-yl}methylene)-4,6-dihydroxy-1-benzofuran-3(2H)-one], the IC50 is 3 nM on PI3K-alpha, 4.2 nM on human TOR and 26.5 nM against PI3K-gamma (PI3Kγ Avg. IC50).

As to `CN(C)CCCNC(=O)c1ccc(-c2cccc3c2c(/C=C2\Oc4cc(O)cc(O)c4C2=O)cn3C)cc1` [Example 387, 4-{3-[(Z)-(4,6-Dihydroxy-3-oxo-1-benzofuran-2(3H)-ylidene)methyl]-1-methyl-1H-indol-4-yl}-N-[3-(dimethylamino)propyl]benzamide], the IC50 at PI3K-alpha stood at 3520 nM; at human TOR, 340 nM; against PI3K-gamma (PI3Kγ Avg. IC50), 4590 nM.

For the compound `CN1CCN(c2cccc3c2c(/C=C2\Oc4cc(O)cc(O)c4C2=O)cn3C)CC1` [Example 439, (2Z)-4,6-dihydroxy-2-{[1-methyl-4-(4-methylpiperazin-1-yl)-1H-indol-3-yl]methylene}-1-benzofuran-3(2H)-one], the IC50 is 4280 nM on PI3K-alpha, 33.8 nM on human TOR and above 10000 nM against PI3K-gamma (PI3Kγ Avg. IC50).

Turning to `Cn1c(-c2ccc(F)cc2)c(C=C2Oc3cc(O)cc(O)c3C2=O)c2ccccc21` [Example 200, 2-{[2-(4-fluorophenyl)-1-methyl-1H-indol-3-yl]methylene}-4,6-dihydroxy-1-benzofuran-3(2H)-one], the figures for the IC50 on PI3K-alpha, at human TOR and against PI3K-gamma (PI3Kγ Avg. IC50) were 1090 nM, 220 nM and 3070 nM, respectively.

As to `COc1ccc2c(c1)c(/C=C1\Oc3cc(O)ccc3C1=O)c(C)n2CCN1CCCC1` [Example 452, (2Z)-6-Hydroxy-2-{[5-methoxy-2-methyl-1-(2-pyrrolidin-1-ylethyl)-1H-indol-3-yl]methylene}-1-benzofuran-3(2H)-one], the IC50 was determined as 49.5 nM on PI3K-alpha, 1950 nM on human TOR and 990 nM against PI3K-gamma (PI3Kγ Avg. IC50).

Turning to `O=C1C(=Cc2c(-c3ccncc3)[nH]c3ccccc23)Oc2cc(O)cc(O)c21` [Example 203, 4,6-dihydroxy-2-[(2-pyridin-4-yl-1H-indol-3-yl)methylene]-1-benzofuran-3(2H)-one], the IC50 on PI3K-alpha worked out at 1410 nM; on human TOR it was 150 nM; on PI3K-gamma (PI3Kγ Avg. IC50) it was 6620 nM.

In the case of `CNC(=O)Nc1ccc2c(c1)C(=O)/C(=C/c1c(-c3c(C)n[nH]c3C)[nH]c3ccc(OC)cc13)O2` [Compound 625, 1-[(2Z)-2-{[2-(3,5-dimethyl-1H-pyrazol-4-yl)-5-methoxy-1H-indol-3-yl]methylidene}-3-oxo-2,3-dihydro-1-benzofuran-5-yl]-3-methylurea], the IC50 on PI3K-alpha came out at 0.2 nM; at human TOR, 1 nM; on PI3K-gamma (PI3Kγ Avg. IC50) it was 4.7 nM.

With `Cn1cc(/C=C2\Oc3cc(O)cc(O)c3C2=O)c2c(-c3ccsc3)cccc21` [Example 374, (2Z)-4,6-Dihydroxy-2-{[1-methyl-4-(3-thienyl)-1H-indol-3-yl]methylene}-1-benzofuran-3(2H)-one], the results for the IC50 on PI3K-alpha, at human TOR and on PI3K-gamma (PI3Kγ Avg. IC50) were 2610 nM, 110 nM and 4200 nM, respectively.

As for `COc1ccc2c(c1)c(/C=C1\Oc3cc(N)ccc3C1=O)cn2CCCN(C)C` [Example 418, (2Z)-6-amino-2-({1-[3-(dimethylamino)propyl]-5-methoxy-1H-indol-3-yl}methylene)-1-benzofuran-3(2H)-one], the IC50 was found to be 1380 nM on PI3K-alpha, 10300 nM at human TOR and 9500 nM at PI3K-gamma (PI3Kγ Avg. IC50).

On to `CC(=O)Nc1ccc(-c2cccc3c2c(/C=C2\Oc4cc(O)cc(O)c4C2=O)cn3C)cc1` [Example 383, N-(4-{3-[(Z)-(4,6-Dihydroxy-3-oxo-1-benzofuran-2(3H)-ylidene)methyl]-1-methyl-1H-indol-4-yl}phenyl)acetamide], for which the IC50 was found to be 750 nM on PI3K-alpha, 12.3 nM on human TOR and 2250 nM against PI3K-gamma (PI3Kγ Avg. IC50).

Turning to `COC(=O)Nc1ccc2c(c1)OC(=Cc1cn(CCCN(C)C)c3ccc(OC)cc13)C2=O` [Example 405, Methyl [2-({1-[3-(dimethylamino)propyl]-5-methoxy-1H-indol-3-yl}methylene)-3-oxo-2,3-dihydro-1-benzofuran-6-yl]carbamate], the IC50 is above 10000 nM on PI3K-alpha, above 20000 nM at human TOR and above 10000 nM at PI3K-gamma (PI3Kγ Avg. IC50).

For the compound `CNC(=O)Nc1cc(C)c2c(c1)C(=O)/C(=C/c1c(C)n(CCN3CCN(C)CC3)c3ccc(OC)cc13)O2` [Compound 662, 1-[(2Z)-2-({5-methoxy-2-methyl-1-[2-(4-methylpiperazin-1-yl)ethyl]-1H-indol-3-yl}methylidene)-7-methyl-3-oxo-2,3-dihydro-1-benzofuran-5-yl]-3-methylurea], the IC50 at PI3K-alpha amounted to 81.5 nM; at human TOR, 1480 nM; on PI3K-gamma (PI3Kγ Avg. IC50), 3070 nM.

In the case of `COc1ccc2c(c1)c(/C=C1\Oc3cc(O)cc(Cl)c3C1=O)c(C)n2CCCN(C)C` [Example 466, (2Z)-4-Chloro-2-({1-[3-(dimethylamino)propyl]-5-methoxy-2-methyl-1H-indol-3-yl}methylene)-6-hydroxy-1-benzofuran-3(2H)-one], the values for the IC50 on PI3K-alpha, at human TOR and at PI3K-gamma (PI3Kγ Avg. IC50) were 73 nM, 7500 nM and 1270 nM, respectively.

For `COc1ccc2[nH]c(-c3c(C)nn(C)c3C)c(/C=C3\Oc4ccc(NC(=O)Nc5ccc(C(=O)N6CCOCC6)cc5)cc4C3=O)c2c1` [Compound 690, 1-[(2Z)-2-{[5-methoxy-2-(1,3,5-trimethyl-1H-pyrazol-4-yl)-1H-indol-3-yl]methylidene}-3-oxo-2,3-dihydro-1-benzofuran-5-yl]-3-[4-(morpholin-4-ylcarbonyl)phenyl]urea], the IC50 on PI3K-alpha was determined as 0.2 nM; at human TOR, 4 nM; against PI3K-gamma (PI3Kγ Avg. IC50), 2.75 nM.

`O=C1C(=Cc2c[nH]c3cccc(-c4ccccc4)c23)Oc2cc(O)cc(O)c21` [Example 269, 4,6-dihydroxy-2-[(4-phenyl-1H-indol-3-yl)methylene]-1-benzofuran-3(2H)-one]: the half-maximal inhibitory concentration (IC50) at PI3K-alpha came to 1640 nM; at human TOR, 1060 nM; against PI3K-gamma (PI3Kγ Avg. IC50), 2210 nM.

With `CNC(=O)Nc1ccc2c(c1)C(=O)/C(=C/c1c(Br)[nH]c3ccc(OC)cc13)O2` [Compound 692, 1-{(2Z)-2-[(2-bromo-5-methoxy-1H-indol-3-yl)methylidene]-3-oxo-2,3-dihydro-1-benzofuran-5-yl}-3-methylurea], the IC50 at PI3K-alpha was found to be 7 nM; at human TOR it was 8 nM; against PI3K-gamma (PI3Kγ Avg. IC50), 105 nM.

As to `COc1ccc2[nH]cc(C=C3Oc4cccc(O)c4C3=O)c2c1` [Example 78, 4-hydroxy-2-[(5-methoxy-1H-indol-3-yl)methylene]-1-benzofuran-3(2H)-one], the IC50 came to 516 nM at PI3K-alpha, 2900 nM on human TOR and 1200 nM against PI3K-gamma (PI3Kγ Avg. IC50).

In the case of `Cn1cc(/C=C2\Oc3cc(O)cc(O)c3C2=O)c2c(-c3ccc(NCCN4CCOCC4)nc3)cccc21` [Example 402, (2Z)-4,6-Dihydroxy-2-[(1-methyl-4-{6-[(2-morpholin-4-ylethyl)amino]pyridin-3-yl}-1H-indol-3-yl)methylene]-1-benzofuran-3(2H)-one], the values for the IC50 at PI3K-alpha, at human TOR and against PI3K-gamma (PI3Kγ Avg. IC50) were 3740 nM, 355 nM and 5940 nM, respectively.

Regarding `O=C(O)c1ccc2[nH]cc(C=C3Oc4cc(O)cc(O)c4C3=O)c2c1` [Example 165, 3-[(4,6-dihydroxy-3-oxo-1-benzofuran-2(3H)-ylidene)methyl]-1H-indole-5-carboxylic acid], the half-inhibitory concentration (IC50) on PI3K-alpha is 9500 nM; at human TOR it was above 20000 nM; on PI3K-gamma (PI3Kγ Avg. IC50) it was above 10000 nM.

For `Cn1cc(C=C2Oc3cc(O)cc(O)c3C2=O)c2cc([N+](=O)[O-])ccc21` [Example 228, 4,6-dihydroxy-2-[(1-methyl-5-nitro-1H-indol-3-yl)methylene]-1-benzofuran-3(2H)-one], the IC50 was 3570 nM on PI3K-alpha, 980 nM at human TOR and above 10000 nM on PI3K-gamma (PI3Kγ Avg. IC50).

Consider `COc1ccc2c(c1)c(/C=C1\Oc3cc(O)c(Br)cc3C1=O)c(C)n2CCCN(C)C` [Example 350, (2Z)-5-Bromo-2-({1-[3-(dimethylamino)propyl]-5-methoxy-2-methyl-1H-indol-3-yl}methylene)-6-hydroxy-1-benzofuran-3(2H)-one], for which the IC50 is 114 nM at PI3K-alpha, above 20000 nM at human TOR and 6870 nM against PI3K-gamma (PI3Kγ Avg. IC50).

With `COc1ccc2[nH]c(-c3c(C)nn(C)c3C)c(/C=C3\Oc4ccc(NC(=O)Nc5ccc(C(=O)N6CCS(=O)(=O)CC6)cc5)cc4C3=O)c2c1` [Compound 720, 1-{4-[(1,1-dioxidothiomorpholin-4-yl)carbonyl]phenyl}-3-[(2Z)-2-{[5-methoxy-2-(1,3,5-trimethyl-1H-pyrazol-4-yl)-1H-indol-3-yl]methylidene}-3-oxo-2,3-dihydro-1-benzofuran-5-yl]urea], the IC50 is 0.4 nM at PI3K-alpha, 2 nM at human TOR and 1.75 nM against PI3K-gamma (PI3Kγ Avg. IC50).

Regarding `O=C1C(=Cc2c[nH]c3cc(Br)ccc23)Oc2cc(O)cc(O)c21` [Example 143, 2-[(6-bromo-1H-indol-3-yl)methylene]-4,6-dihydroxy-1-benzofuran-3(2H)-one], the IC50 on PI3K-alpha amounted to 1850 nM; on human TOR, 4450 nM; against PI3K-gamma (PI3Kγ Avg. IC50) it was 6660 nM.

Consider `COc1ccc2c(c1)c(/C=C1\Oc3cc(O)c(Cl)cc3C1=O)c(C)n2CCN1CCN(C)CC1` [Example 456, (2Z)-5-Chloro-6-hydroxy-2-({5-methoxy-2-methyl-1-[2-(4-methylpiperazin-1-yl)ethyl]-1H-indol-3-yl}methylene)-1-benzofuran-3(2H)-one], for which the results for the IC50 at PI3K-alpha, on human TOR and at PI3K-gamma (PI3Kγ Avg. IC50) were 90.5 nM, above 20000 nM and 4600 nM, respectively.

As for “(2Z)-2-[(4-Bromo-1-methyl-1H-indol-3-yl)methylene]-4,6-dimethoxybenzofuran-3(2H)-one [Example 408]”, the IC50 is 3310 nM at PI3K-alpha, above 20000 nM at human TOR and 1940 nM at PI3K-gamma (read-out: PI3Kγ Avg. IC50).
